Test results from publication PMC8571282 (Nature Communications, 2021).
“And” between values parts separate entries of the source, which are not always exact repeats. Equal values may be shown once.

Columns and labels:
[1] = female, ferret, in vivo, iv
HEp-2 cells = experiment: Cytotoxicity assay (PrestoBlue), HEp-2; details: 72 h
in vitro [2] = details: human, 72 h
in vitro [3] = details: human, % cell viability
in vitro [4] = details: African green monkey
in vitro [5] = details: human
in vitro [6] = details: hamster
in vitro [7] = details: human, % cell viability, M6 HAE, 72 h
[8] = system: SARS-CoV-2-Nluc (WA1/2020-nano luciferase); experiment: microbe, parasite or virus in culture; type: cell-based
HCT-8 cells = experiment: Cytotoxicity assay (PrestoBlue), HCT-8; details: HCT-8, 72 h
“F3” primary HAE cells = experiment: Cytotoxicity assay (PrestoBlue), “F3” HAE; details: F3 HAE, 72 h
in vitro [9] = details: female, human, % cell viability, DF2 HAE, 33.333 µM, 72 h
in vitro [10] = details: human, % cell viability; remark: listed apart in the source
in vitro [11] = details: human, % cell viability, M2 HAE, 72 h
“F2” primary HAE cells = experiment: Cytotoxicity assay (PrestoBlue), “F2” HAE; details: 72 h; for % cell viability: F2 HAE

Structure (SMILES): CCC(CC)COC(=O)[C@H](C)N[P@](=O)(OC[C@H]1O[C@@](C#N)(c2ccc3c(N)ncnn23)[C@H](O)[C@@H]1O)Oc1ccccc1 [remdesivir]
- lung GS-443902 [1]: 1.28 nmol/g
- lung total nuc [1]: 2.96 nmol/g
- % cell viability (HEp-2 cells; HEp-2, 0.046 µM, 0.046 µM): 45% and 47% and 73%
- % cell viability (HEp-2 cells; HEp-2, 1.235 µM, 1.235 µM): 86% and 94%
- % cell viability (HEp-2 cells; HEp-2, 3.704 µM, 3.704 µM): 96%
- % cell viability (HEp-2 cells; HEp-2, 33.333 µM, 33.333 µM): 51% and 66%
- % cell viability (HEp-2 cells; HEp-2, 100 µM, 100 µM): 24%
- viability at 0.046 µM (in vitro [2]; female, % cell viability, F2 HAE, 0.046 µM): 81%
- viability at 33.333 µM (in vitro [2]; female, % cell viability, F2 HAE, 33.333 µM): 72%
- viability at 100 µM (in vitro [2]; % cell viability, F2 HAE, 100 µM): 46%
- CC50 (in vitro [2]; CC50, “F2” HAE): 85.5 µM
- viability at […] (in vitro [3]; female): 91%
- viability at 0.046 µM (in vitro [3]; female, F3 HAE, 0.046 µM, 72 h): 75%
- viability at 33.333 µM (in vitro [3]; female, F3 HAE, 33.333 µM, 72 h): 84%
- viability at 100 µM (in vitro [3]; F3 HAE, 100 µM, 72 h): 51%
- CC50 (in vitro [4]): > 100 µM
- viability at […] (in vitro [4]; % cell viability): 79%
- viability at 3.704 µM (in vitro [4]; % cell viability, VeroE6, 3.704 µM, 72 h): 92%
- viability at 0.046 µM (in vitro [5]; % cell viability, HCT-8, 0.046 µM, 72 h): 76%
- viability at 33.333 µM (in vitro [5]; % cell viability, HCT-8, 33.333 µM, 72 h): 51%
- viability at 100 µM (in vitro [5]; % cell viability, HCT-8, 100 µM, 72 h): 15%
- CC50 (in vitro [5]; CC50, HCT-8, 72 h): 36.4 µM
- CC50 (in vitro [6]): > 100 µM
- viability at 1.235 µM (in vitro [6]; % cell viability, BHK-21, 1.235 µM, 72 h): 87%
- viability at 3.704 µM (in vitro [6]; % cell viability, BHK-21, 3.704 µM, 72 h): 93%
- viability at 100 µM (in vitro [7]; 100 µM): 89%
- viability at 0.046 µM (in vitro [7]; male, 0.046 µM): 90%
- viability at 1.235 µM (in vitro [7]; male, 1.235 µM): 87%
- viability at 33.333 µM (in vitro [7]; male, 33.333 µM): 96%
- A549-hACE2 SARS-CoV-2 Nluc (EC50 determination), normalized signal ([8]; Conc 0.005 µM, replicate values of the experiments): 78.71 and 115.29 and 114.83 and 141.39 and 91.95 and 93.98 and 92.17 and 82.76 and 114.48 and 78.49 and 78.52 and 118.54
- EC50 ([8]; Severe acute respiratory syndrome coronavirus 2, WA1/2020-nano luciferase, A549-ACE2, mean ± SD): 0.08 µM
- CC50 (HCT-8 cells): 36.4 µM
- % cell viability (“F3” primary HAE cells; 0.046 µM): 76% and 79%
- % cell viability (“F3” primary HAE cells; 33.333 µM): 88% and 89%
- % cell viability (“F3” primary HAE cells; 100 µM): 52% and 54%
- viability at 33.333 µM (in vitro [9]): 86%
- viability at […] (in vitro [10]): 89%
- viability at 1.235 µM (in vitro [10]; HEp-2, 1.235 µM, 72 h): 83%
- viability at 33.333 µM (in vitro [10]; HEp-2, 33.333 µM, 72 h): 64%
- viability at 100 µM (in vitro [10]; HEp-2, 100 µM, 72 h): 31%
- viability at 100 µM (in vitro [11]; 100 µM): 56%
- viability at 0.046 µM (in vitro [11]; male, 0.046 µM): 85%
- % cell viability (“F2” primary HAE cells; 0.046 µM): 85% and 82%
- % cell viability (“F2” primary HAE cells; 33.333 µM): 77% and 71%
- % cell viability (“F2” primary HAE cells; 100 µM): 47%
- CC50 (“F2” primary HAE cells; “F2” HAE): 85.5 µM
